A word on the IC50: it is the concentration that gives 50% inhibition.

Structures are written as SMILES. Square brackets hold non-standard residues; d marks the D form. Peptide text beside a SMILES is read from it. * marks the point of attachment. Asu = N[C@@H](CCCCCC(=O)O)C(=O)O; NHOH = ON*

Eight molecules from ChEMBL document CHEMBL3352754, “Bicyclic tetrapeptides as potent HDAC inhibitors: effect of aliphatic loop position and hydrophobicity on inhibitory activity” (Bioorg Med Chem, 2014) can be followed below.

Chain of Histone deacetylase 4 (P56524 whole entry): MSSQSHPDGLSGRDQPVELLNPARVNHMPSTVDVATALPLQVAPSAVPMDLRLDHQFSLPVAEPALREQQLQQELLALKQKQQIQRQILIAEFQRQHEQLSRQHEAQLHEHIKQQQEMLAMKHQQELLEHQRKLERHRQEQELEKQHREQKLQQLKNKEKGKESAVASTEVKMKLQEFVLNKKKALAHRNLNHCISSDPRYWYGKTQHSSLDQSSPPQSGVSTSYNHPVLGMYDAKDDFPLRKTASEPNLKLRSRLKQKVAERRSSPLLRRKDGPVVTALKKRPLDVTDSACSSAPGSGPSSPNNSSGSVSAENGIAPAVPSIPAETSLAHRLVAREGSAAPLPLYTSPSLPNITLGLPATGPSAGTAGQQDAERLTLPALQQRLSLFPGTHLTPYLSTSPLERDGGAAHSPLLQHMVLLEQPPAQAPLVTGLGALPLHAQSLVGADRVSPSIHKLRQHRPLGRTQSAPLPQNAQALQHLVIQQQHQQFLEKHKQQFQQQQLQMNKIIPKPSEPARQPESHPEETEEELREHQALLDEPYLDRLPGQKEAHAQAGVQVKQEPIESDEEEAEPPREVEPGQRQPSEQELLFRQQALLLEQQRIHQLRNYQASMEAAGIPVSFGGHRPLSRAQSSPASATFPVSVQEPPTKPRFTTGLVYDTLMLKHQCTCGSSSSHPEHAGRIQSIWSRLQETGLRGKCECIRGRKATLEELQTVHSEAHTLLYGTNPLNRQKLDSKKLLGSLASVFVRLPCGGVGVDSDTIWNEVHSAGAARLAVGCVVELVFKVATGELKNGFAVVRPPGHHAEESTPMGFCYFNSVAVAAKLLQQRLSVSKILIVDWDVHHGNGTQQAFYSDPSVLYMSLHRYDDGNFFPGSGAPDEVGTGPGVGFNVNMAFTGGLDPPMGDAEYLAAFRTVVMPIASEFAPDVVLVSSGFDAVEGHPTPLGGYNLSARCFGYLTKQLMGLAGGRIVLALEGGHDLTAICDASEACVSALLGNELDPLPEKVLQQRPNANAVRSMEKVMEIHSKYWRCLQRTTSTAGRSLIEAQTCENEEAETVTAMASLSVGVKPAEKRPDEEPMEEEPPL

Test system in the first data set: not listed separately
Description: Selectivity index, ratio of IC50 for mouse HDAC6 to IC50 for human HDAC1.
Settings: not given
`CC[C@H](C)[C@@H]1NC(=O)[C@@H](Cc2ccc(OC)cc2)NC(=O)[C@H](CCCCCC(=O)NO)NC(=O)[C@H]2CCCN2C1=O` (cyclo([Asu](NHOH)[dY](Me)I[dP])): the Ratio IC50 worked out at 32.5.

As to `O=C(CCCCC[C@@H]1NC(=O)[C@H]2CCCCCCCCCC[C@H](NC(=O)[C@H]3CCCN3C1=O)C(=O)N2)NO`, the Ratio IC50 was 19.6.

With `O=C(CCCCC[C@@H]1NC(=O)[C@H]2CCCN2C(=O)[C@@H]2CCOCCCCOCC[C@@H](NC1=O)C(=O)N2)NO`, the Ratio IC50 is 7.7.

For `CCCCC[C@@H]1NC(=O)[C@H]2CCCN2C(=O)[C@H](CCCCCC(=O)NO)NC(=O)[C@@H](CCCCC)NC1=O`, the Ratio IC50 stood at 13.3.

In the case of `CCCCC[C@@H]1NC(=O)[C@@H](CCCCC)NC(=O)[C@H](CCCCCC(=O)NO)NC(=O)[C@H]2CCCN2C1=O`, the Ratio IC50 was found to be 13.6.

Regarding `CCCCC[C@@H]1NC(=O)[C@H](CCCCCC(=O)NO)NC(=O)[C@H]2CCCN2C(=O)[C@H](CCCCC)NC1=O`, the Ratio IC50 was found to be 3.7.

`O=C(CCCCC[C@@H]1NC(=O)[C@H]2CCCN2C(=O)[C@@H]2CCCCCCCCCC[C@H](NC1=O)C(=O)N2)NO`: the Ratio IC50 is 9.2.

As to `O=C(CCCCC[C@@H]1NC(=O)[C@H]2CCCN2C(=O)[C@@H]2CCCCCCCCCC[C@@H](NC1=O)C(=O)N2)NO`, the Ratio IC50 was 45.1.

A further data set addresses T1, Protein deacetylase HDAC6 (Mus musculus, UniProt Q9Z2V5).
T1 sequence (Q9Z2V5 whole entry): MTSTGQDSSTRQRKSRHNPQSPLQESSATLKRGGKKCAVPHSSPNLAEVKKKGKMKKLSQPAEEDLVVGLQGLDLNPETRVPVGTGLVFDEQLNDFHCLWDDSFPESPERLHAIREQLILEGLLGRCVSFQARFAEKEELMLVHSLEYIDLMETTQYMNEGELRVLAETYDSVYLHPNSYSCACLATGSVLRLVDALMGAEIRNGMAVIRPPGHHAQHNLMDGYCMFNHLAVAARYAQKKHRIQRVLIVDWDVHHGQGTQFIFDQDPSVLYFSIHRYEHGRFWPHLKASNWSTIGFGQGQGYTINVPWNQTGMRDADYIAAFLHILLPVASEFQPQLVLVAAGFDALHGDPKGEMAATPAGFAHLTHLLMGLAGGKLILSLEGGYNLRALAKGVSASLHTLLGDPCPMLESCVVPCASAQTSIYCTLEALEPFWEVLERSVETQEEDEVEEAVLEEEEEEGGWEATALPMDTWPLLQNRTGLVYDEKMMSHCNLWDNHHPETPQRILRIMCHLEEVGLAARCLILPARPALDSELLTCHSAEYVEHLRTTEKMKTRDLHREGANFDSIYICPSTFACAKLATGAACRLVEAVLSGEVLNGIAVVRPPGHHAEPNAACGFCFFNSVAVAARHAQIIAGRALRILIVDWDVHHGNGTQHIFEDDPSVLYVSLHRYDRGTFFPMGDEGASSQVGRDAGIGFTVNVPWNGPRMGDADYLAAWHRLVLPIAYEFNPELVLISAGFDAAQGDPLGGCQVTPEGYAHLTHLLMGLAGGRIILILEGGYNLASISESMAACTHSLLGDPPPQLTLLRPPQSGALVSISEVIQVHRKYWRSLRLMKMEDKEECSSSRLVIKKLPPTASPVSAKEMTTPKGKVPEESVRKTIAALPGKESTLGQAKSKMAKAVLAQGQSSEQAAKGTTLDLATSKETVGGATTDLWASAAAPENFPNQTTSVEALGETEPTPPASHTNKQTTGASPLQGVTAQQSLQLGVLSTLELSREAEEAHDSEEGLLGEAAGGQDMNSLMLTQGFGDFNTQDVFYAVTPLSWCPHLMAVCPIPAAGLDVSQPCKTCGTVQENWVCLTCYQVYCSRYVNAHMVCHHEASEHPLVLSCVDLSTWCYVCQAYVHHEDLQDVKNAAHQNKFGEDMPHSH
Description: Inhibition of mouse HDAC6 expressed in HEK293T cells assessed as aminomethyl coumarin release using Ac-KGLGK(Ac)-MCA) substrate after 30 mins by FLIPR method. The class given is cell-based, HEK-293T.
Settings: not given
For the molecule `CC[C@H](C)[C@@H]1NC(=O)[C@@H](Cc2ccc(OC)cc2)NC(=O)[C@H](CCCCCC(=O)NO)NC(=O)[C@H]2CCCN2C1=O` (cyclo([Asu](NHOH)[dY](Me)I[dP])), the IC50 turned out to be 13 nM.

For `O=C(CCCCC[C@@H]1NC(=O)[C@H]2CCCCCCCCCC[C@H](NC(=O)[C@H]3CCCN3C1=O)C(=O)N2)NO`, the IC50 was 490 nM.

On to `O=C(CCCCC[C@@H]1NC(=O)[C@H]2CCCN2C(=O)[C@@H]2CCOCCCCOCC[C@@H](NC1=O)C(=O)N2)NO`, for which the IC50 came out at 240 nM.

For the molecule `CCCCC[C@@H]1NC(=O)[C@H]2CCCN2C(=O)[C@H](CCCCCC(=O)NO)NC(=O)[C@@H](CCCCC)NC1=O`, the 50% inhibitory concentration (IC50) was determined as 570 nM.

Take `CCCCC[C@@H]1NC(=O)[C@@H](CCCCC)NC(=O)[C@H](CCCCCC(=O)NO)NC(=O)[C@H]2CCCN2C1=O`: the 50% inhibitory concentration (IC50) was 340 nM.

On to `CCCCC[C@@H]1NC(=O)[C@H](CCCCCC(=O)NO)NC(=O)[C@H]2CCCN2C(=O)[C@H](CCCCC)NC1=O`, for which the IC50 worked out at 140 nM.

Take `O=C(CCCCC[C@@H]1NC(=O)[C@H]2CCCN2C(=O)[C@@H]2CCCCCCCCCC[C@H](NC1=O)C(=O)N2)NO`: the IC50 worked out at 230 nM.

Take `O=C(CCCCC[C@@H]1NC(=O)[C@H]2CCCN2C(=O)[C@@H]2CCCCCCCCCC[C@@H](NC1=O)C(=O)N2)NO`: the concentration for half-maximal inhibition (IC50) turned out to be 410 nM.

The target of a further data set is Histone deacetylase 1 (Homo sapiens, UniProt Q13547). Description: Inhibition of human HDAC1 expressed in HEK293T cells assessed as aminomethyl coumarin release using Ac-KGLGK(Ac)-MCA) substrate after 30 mins by FLIPR method. The class given is cell-based, HEK-293T.
Chain of Histone deacetylase 1 (Q13547 whole entry): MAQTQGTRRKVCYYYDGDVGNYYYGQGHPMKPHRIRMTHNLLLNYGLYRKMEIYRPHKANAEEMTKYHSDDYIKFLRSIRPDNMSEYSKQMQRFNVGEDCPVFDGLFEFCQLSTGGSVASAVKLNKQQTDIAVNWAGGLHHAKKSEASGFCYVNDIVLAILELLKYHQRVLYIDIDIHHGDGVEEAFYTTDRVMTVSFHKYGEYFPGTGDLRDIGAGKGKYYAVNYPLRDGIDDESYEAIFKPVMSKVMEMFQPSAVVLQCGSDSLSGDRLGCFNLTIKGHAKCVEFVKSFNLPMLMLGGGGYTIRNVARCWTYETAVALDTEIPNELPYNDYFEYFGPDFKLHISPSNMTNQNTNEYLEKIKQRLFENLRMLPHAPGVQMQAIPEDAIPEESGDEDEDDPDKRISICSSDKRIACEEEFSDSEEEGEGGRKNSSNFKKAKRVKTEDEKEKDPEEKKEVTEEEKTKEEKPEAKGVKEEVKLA
Settings: not given
Turning to `CC[C@H](C)[C@@H]1NC(=O)[C@@H](Cc2ccc(OC)cc2)NC(=O)[C@H](CCCCCC(=O)NO)NC(=O)[C@H]2CCCN2C1=O` (cyclo([Asu](NHOH)[dY](Me)I[dP])), the concentration for half-maximal inhibition (IC50) was 0.4 nM.

Regarding `O=C(CCCCC[C@@H]1NC(=O)[C@H]2CCCCCCCCCC[C@H](NC(=O)[C@H]3CCCN3C1=O)C(=O)N2)NO`, the 50% inhibitory concentration (IC50) is 25 nM.

On to `O=C(CCCCC[C@@H]1NC(=O)[C@H]2CCCN2C(=O)[C@@H]2CCOCCCCOCC[C@@H](NC1=O)C(=O)N2)NO`, for which the IC50 stood at 31 nM.

`CCCCC[C@@H]1NC(=O)[C@H]2CCCN2C(=O)[C@H](CCCCCC(=O)NO)NC(=O)[C@@H](CCCCC)NC1=O`: the IC50 turned out to be 43 nM.

Take `CCCCC[C@@H]1NC(=O)[C@H](CCCCCC(=O)NO)NC(=O)[C@H]2CCCN2C(=O)[C@H](CCCCC)NC1=O`: the IC50 came out at 37 nM.

For the molecule `O=C(CCCCC[C@@H]1NC(=O)[C@H]2CCCN2C(=O)[C@@H]2CCCCCCCCCC[C@H](NC1=O)C(=O)N2)NO`, the IC50 amounted to 25 nM.

A further data set concerns Mv1Lu. Description: Inhibition of HDAC in mink Mv1Lu cells expressing human wild-type p21 promoter luciferase fusion plasmid assessed as drug level inducing 10-fold higher luciferase activity by p21 promoter assay relative to baseline. The class given is cell-based. The conditions noted are these: Neovison vison.
In the case of `CC[C@H](C)[C@@H]1NC(=O)[C@@H](Cc2ccc(OC)cc2)NC(=O)[C@H](CCCCCC(=O)NO)NC(=O)[C@H]2CCCN2C1=O` (cyclo([Asu](NHOH)[dY](Me)I[dP])), the EC1000 turned out to be 22 nM.

For `O=C(CCCCC[C@@H]1NC(=O)[C@H]2CCCCCCCCCC[C@H](NC(=O)[C@H]3CCCN3C1=O)C(=O)N2)NO`, the EC1000 came to 58 nM.

As to `O=C(CCCCC[C@@H]1NC(=O)[C@H]2CCCN2C(=O)[C@@H]2CCOCCCCOCC[C@@H](NC1=O)C(=O)N2)NO`, the EC1000 was 2200 nM.

With `CCCCC[C@@H]1NC(=O)[C@H]2CCCN2C(=O)[C@H](CCCCCC(=O)NO)NC(=O)[C@@H](CCCCC)NC1=O`, the EC1000 stood at 80 nM.

For the molecule `CCCCC[C@@H]1NC(=O)[C@@H](CCCCC)NC(=O)[C@H](CCCCCC(=O)NO)NC(=O)[C@H]2CCCN2C1=O`, the EC1000 amounted to 13 nM.

Turning to `CCCCC[C@@H]1NC(=O)[C@H](CCCCCC(=O)NO)NC(=O)[C@H]2CCCN2C(=O)[C@H](CCCCC)NC1=O`, the EC1000 stood at 80 nM.

Regarding `O=C(CCCCC[C@@H]1NC(=O)[C@H]2CCCN2C(=O)[C@@H]2CCCCCCCCCC[C@H](NC1=O)C(=O)N2)NO`, the EC1000 was 510 nM.

Take `O=C(CCCCC[C@@H]1NC(=O)[C@H]2CCCN2C(=O)[C@@H]2CCCCCCCCCC[C@@H](NC1=O)C(=O)N2)NO`: the EC1000 is 7.2 nM.

Another data set has as its target Histone deacetylase 4 (Homo sapiens, UniProt P56524). Briefly: Inhibition of human HDAC4 expressed in HEK293T cells assessed as aminomethyl coumarin release using Ac-KGLGK(Ac)-MCA) substrate after 30 mins by FLIPR method. As to conditions: hek-293t. Format: cell-based.
Consider `CC[C@H](C)[C@@H]1NC(=O)[C@@H](Cc2ccc(OC)cc2)NC(=O)[C@H](CCCCCC(=O)NO)NC(=O)[C@H]2CCCN2C1=O` (cyclo([Asu](NHOH)[dY](Me)I[dP])), for which the 50% inhibitory concentration (IC50) was found to be 3 nM.

Consider `O=C(CCCCC[C@@H]1NC(=O)[C@H]2CCCCCCCCCC[C@H](NC(=O)[C@H]3CCCN3C1=O)C(=O)N2)NO`, for which the IC50 stood at 31 nM.

Consider `O=C(CCCCC[C@@H]1NC(=O)[C@H]2CCCN2C(=O)[C@@H]2CCOCCCCOCC[C@@H](NC1=O)C(=O)N2)NO`, for which the half-inhibitory concentration (IC50) was determined as 41 nM.

For the molecule `CCCCC[C@@H]1NC(=O)[C@H]2CCCN2C(=O)[C@H](CCCCCC(=O)NO)NC(=O)[C@@H](CCCCC)NC1=O`, the IC50 worked out at 43 nM.

Take `CCCCC[C@@H]1NC(=O)[C@H](CCCCCC(=O)NO)NC(=O)[C@H]2CCCN2C(=O)[C@H](CCCCC)NC1=O`: the IC50 was 15 nM.

Turning to `O=C(CCCCC[C@@H]1NC(=O)[C@H]2CCCN2C(=O)[C@@H]2CCCCCCCCCC[C@H](NC1=O)C(=O)N2)NO`, the IC50 worked out at 26 nM.

Test system in another data set: not listed separately
Description: Retention time by HPLC method.
Settings: not given
The class given is physicochemical.
On to `O=C(CCCCC[C@@H]1NC(=O)[C@H]2CCCCCCCCCC[C@H](NC(=O)[C@H]3CCCN3C1=O)C(=O)N2)NO`, for which the Retention_time worked out at 7.06 min.

`O=C(CCCCC[C@@H]1NC(=O)[C@H]2CCCN2C(=O)[C@@H]2CCOCCCCOCC[C@@H](NC1=O)C(=O)N2)NO` gave a Retention_time of 4.31 min.

`CCCCC[C@@H]1NC(=O)[C@H]2CCCN2C(=O)[C@H](CCCCCC(=O)NO)NC(=O)[C@@H](CCCCC)NC1=O` gave a Retention_time of 7.67 min.

In the case of `CCCCC[C@@H]1NC(=O)[C@@H](CCCCC)NC(=O)[C@H](CCCCCC(=O)NO)NC(=O)[C@H]2CCCN2C1=O`, the Retention_time stood at 7.51 min.

In turn, `CCCCC[C@@H]1NC(=O)[C@H](CCCCCC(=O)NO)NC(=O)[C@H]2CCCN2C(=O)[C@H](CCCCC)NC1=O` came in with a Retention_time of 6.55 min.

`O=C(CCCCC[C@@H]1NC(=O)[C@H]2CCCN2C(=O)[C@@H]2CCCCCCCCCC[C@H](NC1=O)C(=O)N2)NO` yielded a Retention_time of 5.8 min.

In turn, `O=C(CCCCC[C@@H]1NC(=O)[C@H]2CCCN2C(=O)[C@@H]2CCCCCCCCCC[C@@H](NC1=O)C(=O)N2)NO` showed a Retention_time of 6.03 min.
